Laboratory results taken from paper PMC9582125, “Two triphosphate tunnel metalloenzymes from apple exhibit adenylyl cyclase activity” (Frontiers in Plant Science, 2022).

Biological target: T1, HpAC1 (Hippeastrum hybrid cultivar, UniProt E1AQY1)
T1 construct: gene AC1
T1 sequence (E1AQY1 1-206): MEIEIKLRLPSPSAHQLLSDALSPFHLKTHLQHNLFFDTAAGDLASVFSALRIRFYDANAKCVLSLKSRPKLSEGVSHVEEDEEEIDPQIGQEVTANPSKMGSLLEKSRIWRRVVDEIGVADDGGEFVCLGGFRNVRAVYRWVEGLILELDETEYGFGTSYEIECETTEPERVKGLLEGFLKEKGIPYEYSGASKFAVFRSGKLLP
Assay: malachite green phosphate release
Assay type: biochemical
Conditions: divalent cation, pH 7.5, 30 °C; hydrolysis

With `O=P(O)(O)OP(=O)(O)OP(=O)(O)O` [PPPi] the “malachite green phosphate release” value was “HpAC1 could hydrolyze both organic and inorganic triphosphates like MdTTM2”.
